{"source": "patent US20220218670A1", "about": "“METHODS OF TREATING DISEASES CHARACTERISED BY VASOCONSTRICTION” (Gesynta Pharma AB, priority 2016, published 2022)", "assay_type_in_all_cases": "in vivo", "key": {"[1]": {"tested_on": "ADMA", "experiment": "Circulating ADMA in plasma by immunoassay after COX-2 inhibition in mice", "conditions": "wild-type mice; parecoxib 100 mg/kg in drinking water for 5 days; FIG. 1", "method": "Experiments were performed on male and female mPGES-1^−/− and their wild-type mPGES-1^+/+ littermate mice at 6-8 weeks of age. […] All mice were housed with a 12 h light/dark cycle in a climate-controlled environment, and were fed with standard rodent chow with water ad libitum. All mice experiments were conducted in line with EU directive 2010/63/EU and according to guidelines from the Swedish Veterinary board the Guide for the Care and Use of Laboratory Animals published by the US National Institutes of Health (NIH Publication No. 85-23, revised 1996). Studies were sanctioned by the Karolinska Institute ethics committee (dnr. N86_13 and N364_11), the Shantou University Institutional Animal Research and Use Committee and/or the Imperial College London Ethical Review Panel (PPL 70/7013 and 70/8422). Where indicated, wild-type (mPGES-1^+/+) mice were treated with the selective COX-2 inhibitor, parecoxib (100 mg/kg; Pfizer, USA) added to their drinking water for 5 days prior to tissue collection as we have done before (see Ahmetaj-Shala, B. et al., Circulation, 131, 633-642 (2015)).\nPlasma was separated by centrifugation for the following circulating mediators measured by immunoassay: ADMA (DLD Diagnostika, Germany), PGE2 (Cisbio Bioassays, France)."}, "[2]": {"tested_on": "Agxt2", "experiment": "Gene expression in renal medulla (TaqMan), gene for degradation of ADMA", "conditions": "wild-type mice, parecoxib 100 mg/kg in drinking water for 5 days, FIG. 3", "method": "(§1) Experiments were performed on male and female mPGES-1^−/− and their wild-type mPGES-1^+/+ littermate mice at 6-8 weeks of age. […] All mice were housed with a 12 h light/dark cycle in a climate-controlled environment, and were fed with standard rodent chow with water ad libitum. All mice experiments were conducted in line with EU directive 2010/63/EU and according to guidelines from the Swedish Veterinary board the Guide for the Care and Use of Laboratory Animals published by the US National Institutes of Health (NIH Publication No. 85-23, revised 1996). […]\n(§2) RNA was isolated from renal medulla homogenates using a magnetic silica-bead isolation kit (Life Technologies, UK) and converted to cDNA using reverse transcriptase (Thermo Fisher Scientific, UK) with oligo(dT) primers (Life Technologies, UK). Gene expression levels were determined using TaqMan hydrolysis probes (Life Technologies, UK) recognising Prmt1 (probe ID: Mm00480133_m1 or Agxt2 (probe ID: Mm01304088_m1). Data were normalised to expression of the housekeeping genes 18S (probe ID: Mm03928990_g1) and Gapdh (probe ID: Mm99999915_g1) and relative expression compared using the comparative Ct method."}, "[3]": {"tested_on": "Prmt1", "experiment": "Gene expression in renal medulla (TaqMan), gene for synthesis of ADMA", "conditions": "wild-type mice, parecoxib 100 mg/kg in drinking water for 5 days, FIG. 2", "method": "as §1, §2"}}}
{"smiles": "CCC(=O)NS(=O)(=O)c1ccc(-c2c(-c3ccccc3)noc2C)cc1", "note": "[parecoxib]", "values": [{"measurement": "plasma levels of ADMA", "setting": "[1]", "result": "increased levels of ADMA"}, {"measurement": "expression of genes responsible for degradation of ADMA (Agxt2)", "setting": "[2]", "result": "increased expression of genes responsible for degradation of ADMA (Agxt2)"}, {"measurement": "expression of genes responsible for synthesis of ADMA (Prmt1)", "setting": "[3]", "result": "increased expression of genes responsible for synthesis of ADMA (Prmt1)"}]}
